According to patent US20250241914A1, “BIFUNCTIONAL PHARMACEUTICAL COMPOUNDS” (DE MONTFORT UNIVERSITY, priority 2024, published 2025):

Columns and labels:
[1] = system: M. tuberculosis rifampicin-resistant strain RpoBS531L; type: cell-based, Mycobacterium tuberculosis
[2] = system: M. tuberculosis rifampicin resistant strain RpoBS522L (H37Rv); type: cell-based, Mycobacterium tuberculosis

SMILES	Mycobacterium tuberculosis strain MIC90, RpoBS531L [1] [µM]	Mycobacterium tuberculosis strain MIC90, RpoBS522L H37Rv [2] [µM]
CO[C@H]1/C=C/O[C@@]2(C)Oc3c(C)c(O)c4c(O)c(c(CNCCCn5cc(CCn6cc(F)c(=O)[nH]c6=O)nn5)c(O)c4c3C2=O)NC(=O)/C(C)=C\C=C\[C@H](C)[C@H](C)[C@@H](C)[C@@H](O)[C@@H](C)[C@H](OC(C)=O)[C@@H]1C [Compound 3A]	0.22	0.31
CO[C@H]1/C=C/O[C@@]2(C)Oc3c(C)c(O)c4c(O)c(c(CNCCOCCOCCOCn5cc(CCn6cc(F)c(=O)[nH]c6=O)nn5)c(O)c4c3C2=O)NC(=O)/C(C)=C\C=C\[C@H](C)[C@H](C)[C@@H](C)[C@@H](O)[C@@H](C)[C@H](OC(C)=O)[C@@H]1C [Compound 3B]	0.23	0.32
CO[C@H]1/C=C/O[C@@]2(C)Oc3c(C)c(O)c4c(O)c(c(CNCCOCCOCCOCn5cc(CCCn6cc(F)c(=O)[nH]c6=O)nn5)c(O)c4c3C2=O)NC(=O)/C(C)=C\C=C\[C@H](C)[C@H](C)[C@@H](C)[C@@H](O)[C@@H](C)[C@H](OC(C)=O)[C@@H]1C [Compound 3C]	0.21	0.47
NNC(=O)c1ccncc1 [Isoniazid, reference compound]	0.55	0.29
